Data from PubChem BioAssay (NCI).
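Five concentrations, 48 hours, 96-well plates. Abbreviation: GI50, concentration required for 50% inhibition of growth. At the TGI there is no net growth.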

Assays:
Test in all cases: inhibition of tumour cell growth, NCI panel, 48 h
IGROV1 ovarian = system: IGROV1 ovarian
MOLT-4 leukemia = system: MOLT-4 leukemia
786-0 renal = system: 786-0 renal
SW-620 colon = system: SW-620 colon
SK-MEL-28 melanoma = system: SK-MEL-28 melanoma
OVCAR-8 ovarian = system: OVCAR-8 ovarian
HCT-15 colon = system: HCT-15 colon
SF-539 CNS = system: SF-539 CNS
CAKI-1 renal = system: CAKI-1 renal
MCF7 breast = system: MCF7 breast

Row | SMILES | TGI (IGROV1 ovarian) | TGI (MOLT-4 leukemia) | TGI (786-0 renal) | TGI (SW-620 colon) | TGI (SK-MEL-28 melanoma) | TGI (OVCAR-8 ovarian) | TGI (HCT-15 colon) | TGI (SF-539 CNS) | TGI (CAKI-1 renal) | GI50 (IGROV1 ovarian) | GI50 (786-0 renal) | GI50 (SW-620 colon) | GI50 (SK-MEL-28 melanoma) | GI50 (OVCAR-8 ovarian) | GI50 (HCT-15 colon) | GI50 (SF-539 CNS) | GI50 (CAKI-1 renal) | GI50 (MOLT-4 leukemia) | GI50 (MCF7 breast) | TGI (MCF7 breast)
1 | COC(=O)CC(=O)C[P+](c1ccccc1)(c1ccccc1)c1ccccc1 | > 218 µM | > 218 µM | > 218 µM | > 218 µM | > 218 µM | > 218 µM | 215 µM | > 218 µM | > 218 µM |  |  |  |  |  |  |  |  |  |  | 
2 | COC(=O)C1=C(C(=O)OC)C2C=CC1C1C(Cl)=C(Cl)C21 (centres undefined) | > 100 µM | > 100 µM | > 100 µM | > 100 µM | > 100 µM | > 100 µM | > 100 µM | > 100 µM | > 100 µM |  |  |  |  |  |  |  |  |  |  | 
3 | CCN(CC)c1c(C(=O)/C=C/c2ccccc2)c(-c2ccccc2)nn(C)c1=O | > 100 µM |  | > 100 µM |  | > 100 µM | > 100 µM |  | > 100 µM | > 100 µM |  |  |  |  |  |  |  |  |  |  | 
4 | Cn1cc(-c2cnc3ccc(NC(=O)Nc4ccc(F)c(Br)c4)cc3n2)cn1 | 3.49 µM |  | 5.9 µM | 3.83 µM | 3.76 µM | 4.34 µM | 4.45 µM | 3.4 µM | 5.57 µM | 1.6 µM | 1.98 µM | 1.85 µM | 1.9 µM | 1.83 µM | 1.92 µM | 1.75 µM | 2.05 µM |  |  | 
5 | COc1ccc(OC)c(NC(=O)C(=O)C(C(C)=O)c2nc3ccc(Cl)cc3[nH]c2=O)c1 (centres undefined) | > 50 µM | > 50 µM | > 50 µM | > 50 µM | > 50 µM | > 50 µM | > 50 µM | > 50 µM | > 50 µM |  |  |  |  |  |  |  |  |  |  | 
6 | CCCCCCCCCCCCCC(=O)OC1CC(=O)OC1CO (centres undefined) | > 100 µM | 52.1 µM | > 100 µM | > 100 µM |  | > 100 µM | 38.4 µM | > 100 µM | > 100 µM |  |  |  |  |  |  |  |  |  |  | 
7 | COC(=O)C(=O)C(C(=O)C=C(C)C)C(=O)C(=O)Nc1cc(C(F)(F)F)ccc1Cl (centres undefined) | > 100 µM | > 100 µM | > 100 µM |  | > 100 µM | > 100 µM | > 100 µM | > 100 µM | > 100 µM |  |  |  |  |  |  |  |  |  |  | 
8 | COc1cc(C2c3cc4c(cc3C(NCC(O)CO)C3COC(=O)[C@H]23)OCO4)cc(OC)c1OC (some centres undefined) | > 100 µM | > 100 µM | > 100 µM | > 100 µM | > 100 µM | > 100 µM | > 100 µM | 0.344 µM |  |  |  |  |  |  |  |  |  |  |  | 
9 | COc1ccc2c(c1)c(-c1nc(-c3cn(C)c4ncccc34)cs1)cn2CCCN1CCCCC1 | 3.46 µM | 3.36 µM | 2.95 µM | 3.63 µM | 3.29 µM |  | 2.96 µM | 3.22 µM |  | 1.74 µM | 1.59 µM | 1.9 µM | 1.76 µM |  | 1.53 µM | 1.75 µM |  | 1.71 µM | 1.7 µM | 3.32 µM
10 | O=C1C=CC(=Nc2ccc3c(c2)C(Br)c2ccccc2-3)O1 (centres undefined) | > 100 µM | > 100 µM | > 100 µM | > 100 µM | > 100 µM | > 100 µM | > 100 µM | > 100 µM |  |  |  |  |  |  |  |  |  |  |  | 
11 | Cc1ccc(S(=O)(=O)C(CC(=O)N2CCCC2)C(=O)c2ccccc2)cc1 (centres undefined) | > 100 µM | > 100 µM | > 100 µM | > 100 µM | > 100 µM | > 100 µM |  | > 100 µM | > 100 µM |  |  |  |  |  |  |  |  |  |  | 
12 | CC1=C(C(=O)Nc2ccc([N+](=O)[O-])cc2)C(c2ccc(N(C)C)cc2)C(C(=O)Nc2ccc([N+](=O)[O-])cc2)=C(C)N1 | 61.9 µM | 42.3 µM | 57.6 µM | 69.8 µM | 28.2 µM | 97.9 µM |  | 50.5 µM | 89.5 µM |  |  |  |  |  |  |  |  |  |  | 
13 | CC[CH2][Pb]([CH2]CC)([CH2]CC)[O]C(=O)C(F)(F)F | 0.627 µM | 0.627 µM | 0.376 µM | 0.253 µM | 0.452 µM |  | 0.587 µM | 0.424 µM | 0.501 µM | 0.177 µM | 0.165 µM | 0.0786 µM | 0.124 µM |  | 0.124 µM | 0.156 µM | 0.16 µM | 0.183 µM |  | 
14 | COC(=O)C[C@H]1CCC2(OCCO2)[C@]1(C)C(=O)OC | > 100 µM | > 100 µM | > 100 µM | > 100 µM | > 100 µM | > 100 µM | > 100 µM | > 100 µM | > 100 µM |  |  |  |  |  |  |  |  |  |  | 
15 | N#CC1(Cc2ccc(N)cc2)c2ccccc2C=CN1C(=O)c1ccccc1 (centres undefined) | > 100 µM | > 100 µM | > 100 µM | > 100 µM | > 100 µM | > 100 µM |  | > 100 µM |  |  |  |  |  |  |  |  |  |  |  | 
16 | COc1ccc2cc1Oc1ccc(cc1)CC1c3cc(c(OC)cc3CCN1C)Oc1c3c(cc4c1C(C2)N(C)CC4)OCO3 (centres undefined) | 28.8 µM | 21.5 µM | 25.3 µM | 25.8 µM | 12.1 µM | 21.1 µM | 14.7 µM | 6.03 µM |  |  |  |  |  |  |  |  |  |  |  | 
17 | CCCCCCCCCCCC(=O)CC(=O)c1c(O)cccc1O | 36.4 µM | 41.9 µM | 39.4 µM | 31 µM | 44.1 µM | 30.6 µM | 47.4 µM | 35.5 µM |  |  |  |  |  |  |  |  |  |  |  | 
18 | O=[N+]([O-])/C=C\c1ccc(Cl)c(Cl)c1 | 2.02 µM | 6.9 µM | 3.56 µM | 3.3 µM | 6.54 µM | 4.16 µM | 17 µM | 18.2 µM | 2.88 µM | 0.602 µM | 1.89 µM | 1.3 µM | 2.48 µM | 1.94 µM | 3.23 µM | 3.83 µM | 1.32 µM | 1.55 µM |  | 
19 | CC(C)CC(=O)[O-].CC(C)CC(=O)[O-].N.N.N.N.[Co+3].[O-][Cl+3]([O-])([O-])[O-] | > 100 µM | > 100 µM | > 100 µM | > 100 µM | > 100 µM | > 100 µM | > 100 µM | > 100 µM |  | > 100 µM | > 100 µM | > 100 µM | > 100 µM | > 100 µM | > 100 µM | > 100 µM |  | > 100 µM |  | 
20 | CCCCCCCCCC[C@@H](O)[C@@H]1CC[C@H]([C@H]2CC[C@@H]([C@@H](O)CCCCCCCCCC[C@H]3CC(CC(C)=O)C(=O)O3)O2)O1 (some centres undefined) | 39.2 µM | 18.8 µM | 28.5 µM | 38 µM | 24.4 µM | 37.8 µM | 34 µM | 22.7 µM | 75.8 µM |  |  |  |  |  |  |  |  |  |  | 
